Assay results reported in US7632844B2, “2-hydroxy-6-phenylphenanthridines as PDE-4 inhibitors” (Nycomed GmbH, priority 2002, dated 2009).

Experiments:
[1] = system: PDE4 (cytosol from human neutrophils); experiment: Inhibition of PDE4 activity, Method a ([3H]cAMP hydrolysis, cytosol from human neutrophils); format: biochemical; parameters: unit not given here; conditions: 0.5 μM cAMP, Motapizone 1 μM
Description: PDE4 activity was determined as described by Thompson et al. (Adv Cycl Nucl Res 10: 69-92, 1979) with some modifications (Bauer and Schwabe, Naunyn-Schmiedeberg's Arch Pharmacol 311: 193-198, 1980). At a final assay volume of 200 μl (96 well microtiter plates) the assay mixture contained 20 mM Tris (pH 7.4), 5 mM MgCl2, 0.5 μM cAMP, [^3H]cAMP (about 30,000 cpm/assay), the test compound and an aliquot of cytosol from human neutrophils which mainly contains PDE4 activity as described by Schudt et al. (Naunyn-Schmiedeberg's Arch Pharmacol 344: 682-690, 1991); the PDE3-specific inhibitor Motapizone (1 μM) was included to suppress PDE3 activity originating from contaminating platelets. Serial dilutions of the compounds were prepared in DMSO and further diluted 1:100 (v/v) in the assays to obtain the desired final concentrations of the inhibitors at a DMSO concentration of 1% (v/v) which by itself only slightly affected PDE4 activity.
After preincubation for 5 min at 37° C., the reaction was started by the addition of substrate (cAMP) and the assays were incubated for further 15 min at 37° C. 50 μl of 0.2 N HCl was added to stop the reaction and the assays were left on ice for about 10 min. Following incubation with 25 μg 5′-nucleotidase (Crotalus atrox snake venom) for 10 min at 37° C., the assays were loaded on QAE Sephadex A-25 (1 ml bed volume). The columns were eluted with 2 ml of 30 mM ammonium formiate (pH 6.0) and the eluate was counted for radioactivity. Results were corrected for blank values (measured in the presence of denatured protein) which were below 5% of total radioactivity. […] The IC50-values for the compounds according to the invention for the inhibition of the PDE4 activity were determined from the concentration-inhibition curves by nonlinear-regression.

Structure (SMILES) | melting point [°C] | Inhibition of the PDE4 activity, −log IC50 [1]
COc1cc2c(cc1OC)C1CC(OC(C)=O)CCC1N=C2c1ccc([N+](=O)[O-])cc1 (racemic) [Compound 5, (±)-Acetic acid (2RS,4aRS,10bRS)-6-(4-nitrophenyl)-8,9-dimethoxy-(1,2,3,4,4a,10b)-hexahydrophenanthridin-2-yl ester] | 77 to 88 | 7.09
COc1cc2c(cc1OC)C1CC(OC(C)=O)CCC1N=C2c1ccc(OCC2CC2)c(OCC2CC2)c1 (racemic) [Compound 6, (±)-Acetic acid (2SR,4aRS,10bRS)-6-(3,4-bis-cyclopropylmethoxyphenyl)-8,9-dimethoxy-(1,2,3,4,4a,10b)-hexahydrophenanthridin-2-yl ester] |  | 7.26
COc1cc2c(cc1OC)C1CC(O)CCC1N=C2c1ccc(OCC2CC2)c(OCC2CC2)c1 (racemic) [Compound 7, (±)-(2RS,4aRS,10bRS)-6-(3,4-Bis-cyclopropylmethoxyphenyl)-8,9-dimethoxy-(1,2,3,4,4a,10b)-hexahydrophenanthridin-2-ol] | 83 to 92 | 8.98
COC(=O)c1ccc(C2=NC3CCC(O)CC3c3cc(OC)c(OC)cc32)cc1 (racemic) [Compound 8, (±)-(2RS,4aRS,10bRS)-6-(4-Methoxycarbonylphenyl)-8,9-dimethoxy-(1,2,3,4,4a,10b)-hexahydrophenanthridin-2-ol] | 94 to 105 | 9.21
COc1cc2c(cc1OC)C1CC(O)CCC1N=C2c1ccc(N(C)C)cc1 (racemic) [Compound 9, (±)-(2RS,4aRS,10bRS)-6-(4-Dimethylaminophenyl)-8,9-dimethoxy-(1,2,3,4,4a,10b)-hexahydrophenanthridin-2-ol] | 115 to 121 | 7.13
COc1ccc(C2=NC3CCC(O)CC3c3cc(OC)c(OC)cc32)cc1OC (racemic) [Compound 10, (±)-(2RS,4aRS,10bRS)-6-(3,4-Dimethoxyphenyl)-8,9-dimethoxy-(1,2,3,4,4a,10b)-hexahydrophenanthridin-2-ol] | 104 to 110 | 8.71
COc1cc2c(cc1OC)C1CC(O)CCC1N=C2c1ccc([N+](=O)[O-])cc1 (racemic) [Compound 11, (±)-(2RS,4aRS, 10bRS)-6-(4-Nitrophenyl)-8,9-dimethoxy-(1,2,3,4,4a,10b)-hexahydrophenanthridin-2-ol] | 178 to 181 | 9.11
COc1cc2c(cc1OC)C1CC(O)CCC1N=C2c1ccc(C(=O)O)cc1 (racemic) [Compound 12, (±)-(2RS,4aRS,10bRS)-6-(4-Carboxyphenyl)-8,9-dimethoxy-(1,2,3,4,4a,10b)-hexahydro-phenanthridin-2-ol] | 172 to 183 | 8.25
COc1cc2c(cc1OC)C1CC(O)CCC1N=C2c1ccc(OCC2CC2)c(OCC2CC2)c1 (racemic) [Compound 13, (±)-(2SR,4aRS, 10bRS)-6-(3,4-Bis-cyclopropylmethoxyphenyl)-8,9-dimethoxy-(1,2,3,4,4a,10b)-hexahydrophenanthridin-2-ol] | 114 to 118 | 8.12
